Where no end group is shown, it is not given here.
Legend:
TLR4 = TLR4 expression in SW480 cells by immunocytochemistry / confocal microscopy; format: cell-based, human; settings: LPS 4 hours then SPA4 1 hour, more pronounced with 100 μM
Procedure: Expression of TLR4: Next, the effect of SPA4 peptide on the expression of TLR4 in SW480 cells was investigated by immunocytochemistry and laser confocal microscopy. Briefly, about 2.5×10^4 cells were seeded in an 8-well chamber slide (Thermo Fisher Scientific, Rochester, N.Y.) in complete medium. The cells were treated with E. coli O111:B4-derived, highly-purified, low-protein LPS (100 ng/ml or 1.0 μg/ml; Calbiochem, CA) for 4 hours following 1 hour incubation with SPA4 peptide (1, 10 and 100 μM). The cells were fixed in 3.5% paraformaldehyde in Dulbecco's PBS (DPBS) and permeabilized with 0.05% saponin solution (Inaba et al. 1998). The wells were washed with DPBS supplemented with 1% FBS and 0.05% saponin, and stained with TLR4-specific antibody (1:50 dilution, Abcam, Mass.) and 10 μg/ml Alexa-fluor 488-labeled secondary anti-rabbit IgG antibody (Invitrogen-Molecular Probes, CA). After washing, the cells were stained with 100 nM rhodamin-phallodin (Cytoskeleton Inc, CO) and 1 μg/ml Hoechst 33342 dyes (Invitrogen-Molecular Probes, CA). Confocal microscopic images were acquired at the Imaging core facility of the Oklahoma Medical Research Foundation, Oklahoma City, using the Zeiss LSM-510 META laser scanning confocal microscope. Images were acquired with lens objective of 63× with the x/y stack sizes being 146.2 μm using band pass filter specifications at 435-485, 560-615 and 505-530.

NF-κB [1] = test: NF-κB luciferase reporter activity in LPS-challenged SW480 cells; format: cell-based, human; settings: LPS 1.0 μg/ml
Procedure: NF-κB activity: Since binding of LPS to TLR4 activates NF-κB through MYD88-dependent and independent pathways, the effects of SPA4 peptide on basal and LPS-induced NF-κB activity were investigated in SW480 cells transfected with a dominant negative construct of MYD88 (MYD88DN) and NF-κB firefly-luciferase reporter plasmid DNA. Both the short-(1 hour) and long-term (5 hours) effects of the SPA4 peptide on NF-κB activity were studied.
The SW480 cells were transiently-transfected with NF-κB firefly-luciferase reporter plasmid pGL4.32 (luc2P/NF-κB-RE/Hygro, Promega, WI; provided by Dr. Kelly Standifer, Department of Pharmaceutical Sciences, University of Oklahoma Health Sciences Center, Oklahoma City, Okla.) and MYD88-dominant negative plasmid construct (MYD88DN, provided by Dr. Ruslan Medzhitov, Yale University, CT). MYD88 dominant negative plasmid DNA construct lacked the death domain and intermediate domain (Medzhitov et al., 1998). Briefly, NF-κB-Luciferase reporter and MYD88-dominant negative plasmids (1.0 μg each) were mixed with 6 μl of Fugene HD reagent (Roche, Ind.) in 92 μl of serum-free low-glucose DMEM medium (Invitrogen, CA), and incubated for 20 minutes at room temperature. The transfection-mix was then added to the SW480 cells. The SW480 cells transfected with a plasmid DNA construct expressing enhanced green fluorescent protein (pHYG-EGFP; Clontech, CA) were observed under Leica DM4000B fluorescent microscope. The transfection efficiency was calculated as percent of cells expressing EGFP over total number of cells in the brightfield channel. […]
After completion of the incubation period, the medium supernatants were removed and cells were washed with room-temperature DPBS. […] The firefly-luciferase activity (measurement of NF-κB activity) was measured using the luciferase reporter assay system (Promega, Fitchburg, Wis.). Briefly, 50 μl of luciferase assay reagent was added to the 20 μl cell lysate by automated dispenser of Synergy HT multi-mode microplate reader (Biotek, Winooski, Vt.), and luminescence was read within 10 seconds. […]

NF-κB [2] = test: NF-κB luciferase reporter activity in LPS-challenged JAWS II dendritic cells; format: cell-based, mouse
Procedure: At the molecular level, the effects of SPA4 peptide on LPS-induced NF-κB activity were studied in dendritic cells (JAWS II cells) co-transfected with NFκB luciferase reporter plasmid construct and dominant negative construct of MYD88 (an adaptor protein downstream of TLR4; MYD88DN). Briefly, JAWS II dendritic cells (0.5×10^6) were transfected with NF-κB luciferase reporter and/or MYD88DN using TransIT-TKO transfection reagent as described earlier (Awasthi S et al., 2003). After 20-24 hours of incubation, the transfected cells were challenged with LPS (100 ng/ml) for 4 hours and treated with SPA4 peptide (10 μM) for 1 hour. After the completion of 5 hours incubation, the cell lysates were prepared in cell lysis buffer and NF-κB-luciferase reporter activity was measured as per the manufacturer's instructions (Promega, WI).

How did the “LPS-stimulated TLR4 expression” value (TLR4) turn out when “GDFRYSDGTPVNYTNWYRGE [SPA4, GDFRYSDGT PVNYTNWYRGE]” was run?
Its value is “reduced the LPS-stimulated TLR4 expression to basal level”.

And the “LPS induced NF-κB activity at 9 hours” value (NF-κB [1]; SPA4 1, 10 or 50 μM, long-term)?
Its value is “not significantly inhibited”.

What about the “LPS induced-NF-κB activity after 5 hours” value (NF-κB [1]; SPA4 10 and 50 μM, short-term) of the same sequence?
The value was “reduces”.

What about the “NF-κB activity in cells transfected with dominant negative construct of MYD88” value (NF-κB [1]; MYD88DN) of the same sequence?
Its value is “did not further reduce”.

And the “MYD88-independent NF-κB activity” value (NF-κB [2]; JAWS II co-transfected with MYD88 dominant negative)?
Its value is “does not affect”.

And the “LPS-induced NF-κB activity in dendritic cells” value (NF-κB [2]; JAWS II, LPS 100 ng/ml 4 hours, SPA4 10 μM 1 hour)?
Its value is “inhibits”.

Reference: US8623832B2, “Peptide compositions that bind TLR-4” (The Board of Regents of the University of Oklahoma, priority 2011, dated 2014)
